Laboratory results reported in a compilation of properties of binary mixtures (doi:10.1021/je950317s).

Experiment: excess molar enthalpy (molar enthalpy of mixing); xn = mol fraction of the nth substance listed
Conditions: 100 kPa

Cl/C=C/Cl + CCCCCCCCCCCC
293.15 K
Conditions | excess molar enthalpy [kcal/mol]
x1 = 0.086 | 0.0404
x1 = 0.1183 | 0.05
x1 = 0.1952 | 0.0913
x1 = 0.2658 | 0.115
x1 = 0.354 | 0.151
x1 = 0.4354 | 0.175
x1 = 0.5034 | 0.19
x1 = 0.5297 | 0.19
x1 = 0.5654 | 0.193
x1 = 0.5792 | 0.19
x1 = 0.637 | 0.19
x1 = 0.6708 | 0.187
x1 = 0.6712 | 0.19
x1 = 0.6857 | 0.185
x1 = 0.7145 | 0.182
x1 = 0.7213 | 0.179
x1 = 0.7547 | 0.173
x1 = 0.7676 | 0.166
x1 = 0.8276 | 0.14
x1 = 0.8799 | 0.107
x1 = 0.9289 | 0.0707
x1 = 0.9652 | 0.038

Cl/C=C/Cl + CCCCCCC
293.15 K
Conditions | excess molar enthalpy [kcal/mol]
x1 = 0.1911 | 0.081
x1 = 0.2074 | 0.0851
x1 = 0.2453 | 0.102
x1 = 0.2905 | 0.111
x1 = 0.3272 | 0.128
x1 = 0.352 | 0.129
x1 = 0.3757 | 0.137
x1 = 0.4118 | 0.151
x1 = 0.4157 | 0.15
x1 = 0.452 | 0.158
x1 = 0.4756 | 0.158
x1 = 0.4978 | 0.161
x1 = 0.5334 | 0.162
x1 = 0.5472 | 0.163
x1 = 0.5627 | 0.165
x1 = 0.5821 | 0.162
x1 = 0.6074 | 0.164
x1 = 0.6429 | 0.157
x1 = 0.6534 | 0.156
x1 = 0.7038 | 0.145
x1 = 0.7761 | 0.125
x1 = 0.8005 | 0.117
x1 = 0.907 | 0.0655
x1 = 0.9624 | 0.0301

Cl/C=C\Cl + CCCCCCCCCCCC
293.15 K
Conditions | excess molar enthalpy [kcal/mol]
x1 = 0.2693 | 0.192
x1 = 0.4431 | 0.283
x1 = 0.6609 | 0.281
x1 = 0.7922 | 0.232
x1 = 0.851 | 0.191
x1 = 0.9026 | 0.139
x1 = 0.9588 | 0.0679

Cl/C=C/Cl + CCCCCCCCCC
293.15 K
Conditions | excess molar enthalpy [kcal/mol]
x1 = 0.0575 | 0.022
x1 = 0.1583 | 0.0636
x1 = 0.2175 | 0.0865
x1 = 0.2316 | 0.0944
x1 = 0.2585 | 0.106
x1 = 0.3396 | 0.132
x1 = 0.3972 | 0.152
x1 = 0.4202 | 0.16
x1 = 0.4829 | 0.168
x1 = 0.5312 | 0.179
x1 = 0.5522 | 0.178
x1 = 0.5739 | 0.175
x1 = 0.6031 | 0.175
x1 = 0.6375 | 0.178
x1 = 0.6555 | 0.176
x1 = 0.6923 | 0.165
x1 = 0.6977 | 0.166
x1 = 0.7284 | 0.163
x1 = 0.7393 | 0.161
x1 = 0.7653 | 0.148
x1 = 0.7812 | 0.144
x1 = 0.8229 | 0.127
x1 = 0.8478 | 0.116
x1 = 0.9335 | 0.0602
x1 = 0.9785 | 0.0213

Cl/C=C\Cl + CCCCCCCCCC
293.15 K
Conditions | excess molar enthalpy [kcal/mol]
x1 = 0.2397 | 0.171
x1 = 0.4025 | 0.253
x1 = 0.6996 | 0.239
x1 = 0.7635 | 0.211
x1 = 0.9492 | 0.0662

Cl/C=C\Cl + CCCCCCCCCCCCCC
293.15 K
Conditions | excess molar enthalpy [kcal/mol]
x1 = 0.3157 | 0.229
x1 = 0.5126 | 0.327
x1 = 0.638 | 0.336
x1 = 0.7787 | 0.288
x1 = 0.8831 | 0.194
x1 = 0.923 | 0.139
x1 = 0.969 | 0.0657

Cl/C=C\Cl + CCCCCCCCCCCCCCCC
293.15 K
Conditions | excess molar enthalpy [kcal/mol]
x1 = 0.5093 | 0.332
x1 = 0.6348 | 0.36
x1 = 0.714 | 0.353
x1 = 0.7791 | 0.326
x1 = 0.8308 | 0.282
x1 = 0.8823 | 0.228
x1 = 0.9221 | 0.168
x1 = 0.9676 | 0.0798

Cl/C=C\Cl + CCCCCCC
313.15 K
Conditions | excess molar enthalpy [kcal/mol]
x1 = 0.0572 | 0.0485
x1 = 0.2014 | 0.148
x1 = 0.3465 | 0.218
x1 = 0.4595 | 0.245
x1 = 0.5694 | 0.24
x1 = 0.6673 | 0.221
x1 = 0.7579 | 0.183
x1 = 0.8409 | 0.137
x1 = 0.9317 | 0.0652

Cl/C=C/Cl + CC(C)CC(C)(C)C
293.15 K
Conditions | excess molar enthalpy [kcal/mol]
x1 = 0.1328 | 0.0519
x1 = 0.1885 | 0.0681
x1 = 0.2561 | 0.0923
x1 = 0.3253 | 0.111
x1 = 0.415 | 0.124
x1 = 0.4532 | 0.13
x1 = 0.4584 | 0.134
x1 = 0.5167 | 0.141
x1 = 0.5332 | 0.138
x1 = 0.5571 | 0.138
x1 = 0.5777 | 0.139
x1 = 0.6055 | 0.139
x1 = 0.6468 | 0.135
x1 = 0.6554 | 0.133
x1 = 0.6658 | 0.131
x1 = 0.6824 | 0.13
x1 = 0.6926 | 0.127
x1 = 0.8092 | 0.0997
x1 = 0.8404 | 0.0875
x1 = 0.8988 | 0.0619
x1 = 0.9517 | 0.033

Cl/C=C/Cl + CCCCCCCCCCCCCCCC
293.15 K
Conditions | excess molar enthalpy [kcal/mol]
x1 = 0.0735 | 0.0351
x1 = 0.1873 | 0.0944
x1 = 0.3532 | 0.167
x1 = 0.4326 | 0.192
x1 = 0.5287 | 0.212
x1 = 0.5819 | 0.223
x1 = 0.6155 | 0.223
x1 = 0.6514 | 0.22
x1 = 0.7106 | 0.214
x1 = 0.7294 | 0.208
x1 = 0.7428 | 0.205
x1 = 0.7698 | 0.197
x1 = 0.7846 | 0.194
x1 = 0.8008 | 0.184
x1 = 0.8578 | 0.152
x1 = 0.8776 | 0.137
x1 = 0.8951 | 0.125
x1 = 0.9485 | 0.071
x1 = 0.9795 | 0.0306

Cl/C=C/Cl + CCCCCCCCCCCCCC
293.15 K
Conditions | excess molar enthalpy [kcal/mol]
x1 = 0.1129 | 0.05
x1 = 0.1792 | 0.0877
x1 = 0.3112 | 0.14
x1 = 0.3404 | 0.153
x1 = 0.3809 | 0.165
x1 = 0.4345 | 0.181
x1 = 0.4786 | 0.193
x1 = 0.5019 | 0.2
x1 = 0.535 | 0.201
x1 = 0.5634 | 0.205
x1 = 0.5851 | 0.204
x1 = 0.6008 | 0.207
x1 = 0.6211 | 0.209
x1 = 0.6352 | 0.208
x1 = 0.6675 | 0.204
x1 = 0.6789 | 0.202
x1 = 0.7008 | 0.199
x1 = 0.7106 | 0.198
x1 = 0.7314 | 0.191
x1 = 0.747 | 0.188
x1 = 0.757 | 0.185
x1 = 0.7762 | 0.178
x1 = 0.8541 | 0.141
x1 = 0.8757 | 0.127
x1 = 0.9005 | 0.108
x1 = 0.9374 | 0.0746

Cl/C=C\Cl + CC(C)CC(C)(C)C
293.15 K
Conditions | excess molar enthalpy [kcal/mol]
x1 = 0.2119 | 0.142
x1 = 0.3627 | 0.209
x1 = 0.4911 | 0.228
x1 = 0.5812 | 0.226
x1 = 0.6622 | 0.21
x1 = 0.7314 | 0.188
x1 = 0.8061 | 0.155
x1 = 0.8696 | 0.116
x1 = 0.9434 | 0.0566
